According to patent US20210030869A1, “DOSING REGIMEN FOR AN IDO INHIBITOR” (Incyte Corporation, priority 2019, published 2021):
Entries after “also recorded” stand apart in the source; their conditions may differ. Like-named read-outs stand apart in the source and are kept apart here.

Experiments:
endometrial cancer = details: cited from earlier work
[1] = Safety and dose-limiting toxicity in Phase 1b dose-finding study (INCMGA 0012-102); assay type: in vivo; details: epacadostat 900 mg BID with ANTIBODY X 500 mg Q4W
Source text: The study is an open-label, nonrandomized, multicenter, Phase 1b study with independent treatment groups.
For dose escalation, a Bayesian optimal interval (BOIN) design with a cohort size of approximately 3 evaluable participants is used. The target rate of dose-limiting toxicities (DLTs) is assumed to be 30% for each combination. At each dose level, a maximum of 9 participants are enrolled.
Participants in the dose-escalation cohorts are observed for 28 days for occurrence of DLTs.
The MTD is defined as the highest dose at which less than approximately one-third of the participants have a DLT. Dose-limiting toxicities occurring during the first 28 days of treatment guide dose escalation and determination of the MTD and RP2D. In addition, participants with late-onset safety events meeting the definition of DLT or those who had intolerable, lower grade persistent toxicity determined to be attributable to either study drug (e.g., Grade 2 peripheral neuropathy) are considered in the selection of each combination RP2D. […]
A DLT is defined as the occurrence of any of the toxicities listed in Table 4 that are possibly, probably, or definitely due to study treatment occurring from the start of treatment up to and including Day 28. All DLTs will be assessed by the investigator using Common Terminology Criteria for Adverse Events: Version 5 (CTCAE v5) criteria. […]

[2] = system: plasma kynurenine levels (IDO1 inhibition)
Protocol: Clinical laboratory tests are performed, including measurement of kynurenine levels in blood plasma and tumor samples.
Plasma kynurenine levels were measured by an LC-MS/MS method at World Wide Clinical Trials, Inc. Patient samples were obtained pre-dose and at defined times following treatment.
Plasma kynurenine was measured pre-treatment (C1D1) and at the indicated visits.

[3] = MSI-H or MMR deficient endometrial cancer progressed on prior therapy
[4] = first line therapy in advanced endometrial cancer

CC(=O)O[C@H]1C(=O)[C@@]2(C)[C@H]([C@H](OC(=O)c3ccccc3)[C@]3(O)C[C@H](OC(=O)[C@H](O)[C@@H](NC(=O)c4ccccc4)c4ccccc4)C(C)=C1C3(C)C)[C@]1(OC(C)=O)CO[C@@H]1C[C@@H]2O [Paclitaxel]
RR (response rate) (endometrial cancer; endometrial cancer patients previously treated with combination of cisplatinum and doxorubicin): 25%

CC(=O)O[C@@]12CO[C@@H]1C[C@H](O)[C@@]1(C)C(=O)[C@H](O)C3=C(C)[C@@H](OC(=O)[C@H](O)[C@@H](NC(=O)OC(C)(C)C)c4ccccc4)C[C@@](O)([C@@H](OC(=O)c4ccccc4)[C@H]21)C3(C)C [docetaxel]
RR (response rate) (endometrial cancer; endometrial cancer patients treated with paclitaxel in first line therapy): 8%

NS(=O)(=O)NCCNc1nonc1C(=NO)Nc1ccc(F)c(Br)c1 [epacadostat, 4-({2-[(aminosulfonyl)amino]ethyl}amino)-N-(3-bromo-4-fluorophenyl)-N′-hydroxy-1,2,5-oxadiazole-3-carboximidamide]
maximum tolerated dose (MTD) assessment [1]: exceeded the MTD | reductions in plasma kynurenine levels compared to Group 1 ([2]; 600 mg BID epacadostat (Group 2) vs 100 mg BID (Group 1), with ANTIBODY X 500 mg Q4W, day 8 of treatment, solid tumor patients, 3 per group): increased reductions in plasma kynurenine levels | patients showing sustained reductions in plasma kynurenine ([2]; 600 mg BID epacadostat with ANTIBODY X 500 mg Q4W, after 5 weeks of treatment): 2/3 | decreases in plasma kynurenine over visits (FIG. 1) ([2]; epacadostat 600 mg BID with ANTIBODY X, pre-treatment (C1D1) vs later visits): sustained (up to 4 months) decreases in plasma kyn in most patients; also recorded: sustained (up to 4 months) decreases in plasma kynurenine levels in most patients | normalization of kynurenine ([2]; epacadostat 600 mg BID with ANTIBODY X, preliminary observations): durable normalization of kynurenine

Pembrolizumab: another anti-PD-1 antibody
ORR for EC (endometrial cancer; [3]): 36% | duration of response (endometrial cancer; [3]): 4-17 months

carboplatin and paclitaxel
ORR (endometrial cancer; [4]): approximately 50% | OS (endometrial cancer; [4]): 3 years | PFS (endometrial cancer; [4]): 13 months
